According to patent US20240246941A1, “SUBSTITUTED 4-(3-AMINOPROP-1-YL)AMINOQUINOLINE ANALOGS AS MODULATORS OF MELANOMA-ASSOCIATED ANTIGEN 11 UBIQUITIN LIGASE” (ST. JUDE CHILDREN'S RESEARCH HOSPITAL, INC., priority 2020, published 2024):

The compounds below were run against MAGE-A11:PCF11 (Homo sapiens (Human), UniProt P43364) (assay: TR-FRET single point screening at 15 μM). Conditions: single point TR-FRET screening at 15 μM against MAGE-A11:PCF11.
Type: binding
Design: unit not given here
Method in brief: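 Single-point screen at 15 μM (0.25% DMSO) measuring disruption of GST-MAGEA11 (5 nM) binding to FAM-PCF11_4 peptide (200 nM) detected by Tb-anti-GST (5 nM). Buffer 50 mM Tris pH 7.5, 20 mM MgCl2, 0.1 mg/ml BSA, 1 mM DTT; 90 min at ~25 °C; 520/490 nm ratio converted to % inhibition versus controls.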

MAGE-A11:PCF11, sequence (P43364 218-429): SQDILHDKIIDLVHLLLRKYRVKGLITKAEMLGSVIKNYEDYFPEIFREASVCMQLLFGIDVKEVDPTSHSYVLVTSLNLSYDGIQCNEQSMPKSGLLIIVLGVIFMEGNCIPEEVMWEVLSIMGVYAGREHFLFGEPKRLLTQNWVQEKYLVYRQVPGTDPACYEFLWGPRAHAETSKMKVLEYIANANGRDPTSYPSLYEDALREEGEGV

Question: COc1cccc(F)c1CN(CCCCNc1ccnc2cc(Cl)ccc12)Cc1ccccc1 [SJ000357501] was tested. Which TR-FRET signal did it give?
Answer: 5.094

Question: With CCOc1ccc2ncc(S(=O)(=O)c3ccc(C)cc3)c(N3CCN(c4ccc(F)cc4)CC3)c2c1 [SJ000117060] as the compound, how does the TR-FRET signal read?
Answer: −11.07

Question: With Cc1ccc(S(=O)(=O)c2cnc3ccc(F)cc3c2N2CCN(c3ccc(F)cc3)CC2)cc1 [SJ000117061] as the compound, how does the TR-FRET signal read?
Answer: −70.5

Question: Which TR-FRET signal does the source give for Clc1ccc2c(NCCCCN(Cc3ccccc3)Cc3csc4ccccc34)ccnc2c1 [SJ000520446] here?
Answer: 33.98

Question: CCCN(CCCNc1c2ccc(Cl)cc2nc2ccc(OC)cc12)Cc1nccn1C [SJ000522973] was tested. Which TR-FRET signal did it give?
Answer: −159.9

Question: How did the TR-FRET signal turn out when Cn1ccnc1CN(CCCCNc1ccnc2cc(Cl)ccc12)Cc1ccccc1 [SJ000520435] was run?
Answer: 5.888

Question: Which TR-FRET signal does the source give for Oc1ccccc1CN1CCC(Nc2ccnc3cc(Cl)ccc23)CC1 [SJ000357529] here?
Answer: 22.15

Question: CCOC(=O)c1cnc2ccc(OC)cc2c1N1CCN(C)CC1 [SJ000279507] was tested. Which TR-FRET signal did it give?
Answer: −2.791

Question: With CCc1ccc(S(=O)(=O)c2cnc3ccccc3c2N2CCN(c3ccccc3)CC2)cc1 [SJ000117053] as the compound, how does the TR-FRET signal read?
Answer: −21.21

Question: CCCN(CCCNc1c2ccc(Cl)cc2nc2ccc(OC)cc12)Cc1ccc2c(c1)OCO2 [SJ000520940] was tested. Which TR-FRET signal did it give?
Answer: −193.5

Question: For CCCN(CCCNc1c2ccc(Cl)cc2nc2ccc(OC)cc12)Cc1cccc(OC)c1 [SJ000520961], which TR-FRET signal is on record?
Answer: −244.6

Question: How did the TR-FRET signal turn out when CCN(CC)CCCC(C)Nc1ccnc2cc(Cl)ccc12 (stereo not drawn) [SJ000285185] was run?
Answer: −2.592

Question: Which TR-FRET signal does the source give for COc1ccc(-c2csc(N3CCN(c4cc(C)nc5ccccc45)CC3)n2)cc1OC [SJ000114009] here?
Answer: −53.43

Same assay, conditions: single point TR-FRET screening of quinoline compounds against MAGE-A11:PCF11; 15 μM

Question: For FC(F)(F)c1ccc2c(NCCCNCc3cc4ccccc4s3)ccnc2c1 [SJ000521060], which TR-FRET signal is on record?
Answer: 35.63

Question: CCCN(CCCNc1ccnc2cc(C(F)(F)F)ccc12)Cc1cnn(C)c1 [SJ000575182] was tested. Which TR-FRET signal did it give?
Answer: 15.68

Question: With Clc1ccc2c(NCCCN(Cc3ccccc3)Cc3ccc(Br)o3)ccnc2c1 [SJ000312671] as the compound, how does the TR-FRET signal read?
Answer: −1.797

Question: Which TR-FRET signal does the source give for CCCN(CCCNc1ccnc2cc(Cl)ccc12)Cc1ccccc1F [SJ000522757] here?
Answer: 21.99

Question: Cn1ccnc1CN(CCCNc1ccnc2cc(Cl)ccc12)Cc1ccccc1 [SJ000520431] was tested. Which TR-FRET signal did it give?
Answer: 15.36

Question: For CCCN(CCCNc1ccnc2cc(C(F)(F)F)ccc12)Cc1cc(C)ccc1C [SJ000523082], which TR-FRET signal is on record?
Answer: 21.74

Question: Which TR-FRET signal does the source give for CCCN(CCCNc1ccnc2cc(C(F)(F)F)ccc12)Cc1ccccc1C(=O)O [SJ000523073] here?
Answer: 16.86

Question: CCCN(CCCNc1c2ccc(Cl)cc2nc2ccc(OC)cc12)Cc1cccc([N+](=O)[O-])c1 [SJ000520948] was tested. Which TR-FRET signal did it give?
Answer: −10.74

Question: How did the TR-FRET signal turn out when CCCN(CCCNc1ccnc2cc(C(F)(F)F)ccc12)Cc1cc2ccccc2o1 [SJ000520479] was run?
Answer: −20.41

Question: c1coc(CNCCCNc2ccnc3cc(CC4CCCCC4)ccc23)c1 [SJ000311250] was tested. Which TR-FRET signal did it give?
Answer: 40.66

Question: Which TR-FRET signal does the source give for CCCN(CCCNc1ccnc2cc(Cl)ccc12)Cc1c(F)c(F)c(F)c(F)c1F [SJ000522748] here?
Answer: 19.87

Question: Which TR-FRET signal does the source give for CCCN(CCCNc1ccnc2cc(Cl)ccc12)Cc1ccccc1 [SJ000357431] here?
Answer: 19.14

Question: Which TR-FRET signal does the source give for CCCN(CCCNc1ccnc2cc(Cl)ccc12)Cc1ccccc1C(F)(F)F [SJ000522745] here?
Answer: −38.03

Question: For Cc1c(CNCCCNc2ccnc3cc(Cl)ccc23)c(=O)n(-c2ccccc2)n1C [SJ000523058], which TR-FRET signal is on record?
Answer: 5.584

Question: Which TR-FRET signal does the source give for CCCCNCCCNc1ccnc2cc(Cl)ccc12 [SJ000521027] here?
Answer: 8.454

Question: Which TR-FRET signal does the source give for CCCN(CCCNc1ccnc2cc(C(F)(F)F)ccc12)Cc1cc(F)ccc1C [SJ000521014] here?
Answer: 20.64

Question: Which TR-FRET signal does the source give for CCCN(CCCNc1ccnc2cc(C(F)(F)F)ccc12)Cc1ccccc1OC [SJ000523072] here?
Answer: 32.61

Question: Fc1ccc(-c2ccc3c(NCCCNCc4ccco4)ccnc3c2)cc1 [SJ000311238] was tested. Which TR-FRET signal did it give?
Answer: 27.43

Question: How did the TR-FRET signal turn out when Clc1ccc2c(NCCCN(Cc3ccccc3)Cc3cccc4ccccc34)ccnc2c1 [SJ000361181] was run?
Answer: 26.23

Question: With CCCN(CCCNc1ccnc2cc(Cl)ccc12)Cc1ccccc1OC(F)(F)F [SJ000357595] as the compound, how does the TR-FRET signal read?
Answer: −21.87
